In PubChem BioAssay AID2744 (NMMLSC, 2010):
The source made the active and inactive calls.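 How the source made its calls: active means fitted half-maximal concentration for changing reporter fluorescence at or below a set limit; inactive means the rest.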

What follows are compounds tested against Citrate synthase, peroxisomal (Saccharomyces cerevisiae (strain ATCC 204508 / S288c)) (UniProt P08679) (assay: yeast TOR pathway CIT2-GFP reporter potency – flow cytometry, MLPCN hits, dose response (AID 2744)). Conditions: S. cerevisiae CIT2-GFP strain, 3 h, at 33 µM (top of the series).
Sequence of Citrate synthase, peroxisomal (Saccharomyces cerevisiae (strain ATCC 204508 / S288c)) (P08679 whole entry, looked up): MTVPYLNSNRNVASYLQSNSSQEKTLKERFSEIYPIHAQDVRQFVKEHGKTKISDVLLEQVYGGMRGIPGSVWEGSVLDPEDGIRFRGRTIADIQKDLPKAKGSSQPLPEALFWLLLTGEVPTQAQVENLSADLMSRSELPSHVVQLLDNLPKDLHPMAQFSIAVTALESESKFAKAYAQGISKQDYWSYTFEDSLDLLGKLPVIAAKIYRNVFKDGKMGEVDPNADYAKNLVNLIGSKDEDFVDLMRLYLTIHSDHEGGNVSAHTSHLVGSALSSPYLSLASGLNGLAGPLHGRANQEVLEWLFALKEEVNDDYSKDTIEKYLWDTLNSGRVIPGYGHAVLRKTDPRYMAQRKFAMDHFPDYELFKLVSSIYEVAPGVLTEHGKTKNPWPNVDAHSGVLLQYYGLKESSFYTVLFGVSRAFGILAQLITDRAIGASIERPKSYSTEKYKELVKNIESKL

| SMILES | GFP fluorescence, higher = induction |
| --- | --- |
| COc1cc(NC(=O)c2ccccc2[N+](=O)[O-])ccc1NC(=O)c1cc2ccccc2o1 | inactive |
| O=C1C=CC(=O)N1c1ccc(N2CCCCC2)cc1 | inactive |
| CCN(CC)c1ccc(/C=C2/C(=O)c3ccc(C(=O)O)cc3C2=O)cc1 | inactive |
| Cc1ccc(/C=C2\C(=O)NC(=S)N(c3ccc(F)cc3)C2=O)s1 | inactive |
| O=[N+]([O-])c1ccc(N=Nc2c(Cl)cc(O)cc2Cl)cc1 | inactive |
| Oc1c(C(Nc2cccc(C(F)(F)F)c2)c2ccncc2)ccc2cccnc12 (stereo not given) | inactive |
| O=c1c2cc(Br)ccc2nc(-c2ccc([N+](=O)[O-])cc2)n1O | inactive |
| O=[N+]([O-])c1cc(Cl)cc(/C=N\Nc2ccccn2)c1O | inactive |
| C[n+]1ccc(/C=C/c2c[nH]c3ccccc23)cc1 | inactive |
| CCN(CC(=O)NC(C)(C)C)C(=O)COc1c(Cl)cc(Cl)c2ccc(C)nc12 | inactive |
| CC1=NNC(=O)/C1=C\c1cn(-c2ccccc2)nc1-c1ccccc1 | inactive |
| CCOC(=O)CCS(=O)(=O)c1nc(-c2ccccc2)cc(C(F)(F)F)n1 | inactive |
| COc1cccc2cc(-c3nc4ccccc4o3)c(=O)oc12 | inactive |
| COc1cc(/C=C2\CC/C(=C\c3cc(OC)c(O)c(OC)c3)C2=O)cc(OC)c1O | inactive |
| O=C(CCS(=O)(=O)c1ccccc1)Nc1nc(-c2ccccn2)cs1 | inactive |
| O=[N+]([O-])c1cc(Cl)c2cccnc2c1O | inactive |
| Cn1ncc(S(=O)(=O)Cc2ccccc2)c(Cl)c1=O | inactive |

| SMILES | GFP fluorescence, higher = induction |
| --- | --- |
| COc1ccc(N2C(=O)/C(=C/c3cccs3)C(=O)NC2=S)cc1 | inactive |
| O=C(O)c1cccc(S(=O)(=O)Nc2ccc(S(=O)(=O)N3CCOCC3)cc2)c1 | inactive |
| Cc1cccc(Nc2nc(-c3ccccn3)cs2)n1 | inactive |
| CCCc1nnc(NC(=O)c2c(O)c3cccc4c3n(c2=O)CCC4)s1 | inactive |
| Oc1ccc2ccccc2c1/C=N/Nc1nnc(-c2ncc[nH]2)c2ccccc12 | inactive |
| C#CCOCCOCCOCCNc1nc(N2CCN(C(=O)CCCCCCCCCCNC(=O)[C@H](CCCCN)n3cc(CCO)nn3)CC2)nc(N2CCN(C(=O)CCCCCCCCCCNC(=O)[C@H](CCCCN)n3cc(C[C@@H](C)CC)nn3)CC2)n1 | inactive |
| O=C(OCC(=O)N1CCN(C(=O)c2ccco2)CC1)c1cc(-c2ccc(F)cc2)nc2ccccc12 | inactive |
| COc1ccc(/C=C2\C(=O)ON=C2c2ccccc2)cc1 | inactive |
| Cc1cc(NC(=O)c2cccnc2Cl)ccc1NC(=O)c1cc2ccccc2o1 | inactive |
| Cc1ccccc1N=Nc1ccc(O)c2ncccc12 | inactive |
| CC(Oc1ccc2ccccc2c1)C(=O)NNC(=S)NC(=O)c1ccco1 (stereo not given) | inactive |
| C#CCOCCOCCOCCNc1nc(N2CCN(C(=O)CCCCCCCCCCNC(=O)[C@H](CCCCN)n3cc(CCO)nn3)CC2)nc(N2CCN(C(=O)CCCCCCCCCCNC(=O)[C@H](CCCN=C(N)N)n3cc(C[C@@H](C)CC)nn3)CC2)n1 | inactive |
| O=C1NC(=O)N(c2ccccc2)C(=O)/C1=C/c1ccc(Sc2ccccc2)o1 | inactive |
| O=C(Nc1nc(-c2ccccn2)cs1)C1COc2ccccc2O1 (stereo not given) | inactive |
| COc1ccc(C2(C)ON(c3ccccc3C(F)(F)F)C2=O)cc1 (stereo not given) | inactive |
| [O-][n+]1cccc2c(Br)cc(Br)c(O)c21 | inactive |
| COc1ccc(C(=O)/C=C2/C(=O)Nc3ccccc32)cc1 | inactive |

Same assay, conditions: S. cerevisiae CIT2-GFP strain, flow cytometry fluorescence, 3 h

| SMILES | EC50 [nM] |
| --- | --- |
| O=C(Nc1ccc(Cl)cc1)ON=C1CCCC1 | 1230 |
